Measurements: patent US20230000936A1, “A[…] ITCHING […] C[…]” (Demetrix, Inc., priority 2021, published 2023)

Tests used:
Assay type in all cases: cell-based
[1] = target: T1, MRGPRX2 (Homo sapiens, UniProt Q96LB1); experiment: GPCR reactivity screen, PathHunter β-Arrestin, antagonist assay MRGPRX2; conditions: for antagonist activity against MRGPRX2 (in words): GPCR reactivity screen; for MRGPRX2 (Antagonist) percent inhibition: antagonist mode, agonist challenge at EC80
T1 sequence (Q96LB1 1-330): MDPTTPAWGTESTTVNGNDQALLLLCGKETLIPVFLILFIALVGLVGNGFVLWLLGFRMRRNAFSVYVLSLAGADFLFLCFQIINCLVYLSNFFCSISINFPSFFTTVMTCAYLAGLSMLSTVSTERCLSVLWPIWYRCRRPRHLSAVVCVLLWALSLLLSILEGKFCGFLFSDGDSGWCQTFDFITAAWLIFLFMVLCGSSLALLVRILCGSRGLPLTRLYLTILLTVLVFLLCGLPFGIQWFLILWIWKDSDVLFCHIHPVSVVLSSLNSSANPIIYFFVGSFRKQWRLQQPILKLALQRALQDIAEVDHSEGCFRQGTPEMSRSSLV
Method: (§1) To evaluate the role specific cannabinoid compounds play in the neurological signaling pathway for itching, a GPCR reactivity assay was performed to determine the reactivity of 19 cannabinoid compounds to each of CHRM2, EDG3, and MRGPRX2. The evaluated cannabinoid compounds were: CBN, THCV, CBDVA, CBG, CBL, CBC, CBDV, CBDA, CBD, CBGA, (+)-CBD, CBG-C4, CBD-C1, CBD-C2, CBGV, CBGA-C4, CBGVA, CBCA, and CBLA. Acetylcholine was used as the control for CHRM2, sphingosine-1-phosphate was used as the control for EDG3; and cortistatin 14 was used as the control for MRGPRX2.
(§2) In each of the antagonist assays, PathHunter® cell lines were removed from a freezer stock and seeded at a volume of 20 μL into white walled, 384-well microplates and incubated at 37° C. Each cell was pre-incubated with an antagonist followed by an agonist challenge at the EC80 concentration. Cells were then diluted to generate a 5× sample in assay buffer. 5 μL of the 5× sample was then added to cells and incubated at 37° C. for 30 minutes. Finally, 5 μL of 6×EC80 agonist in assay buffer were added to the cells and incubated at 37° C. for 90 minutes or 180 minutes. The assay signal was generated through addition of 12.5 μL or 15 μL (50% V/V) of a detection reagent cocktail followed by a one hour incubation time at room temperature. Microplates were read following signal generation with a PerkinElmer Envision™ (PerkinElmer Inc., Waltham, Mass.) for chemiluminescent signal detection. Reactivity was analyzed using the CBIS data analysis suite (ChemInnovation, CA) where RLU refers to the raw measured values. The percent inhibition was calculated using the formula: % Inhibition=100%*(1−mean RLU of test sample−mean RLU of control)/(mean RLU of EC80 control−mean RLU of vehicle control).
(§3) As used herein, strong activity against a receptor is considered a percent activity of about 42% or higher. Higher results for antagonism against CHRM2, EDGE, and MRGPRX2 are considered better. It is further considered better when a cannabinoid inhibits more than one of the receptors.

[2] = target: T1, MRGPRX2; experiment: IC50 antagonist activity screen, PathHunter β-Arrestin, MRGPRX2; conditions: maximum of IC50 curve
Method: as §2
as §3, with “IC50 curves were measured using the same GPCR assay, PathHunter® β-Arrestin from Eurofins DiscoverX Products (Fremont, Calif.), as the GPCR reactivity screen. As” for “As”, “maximum” for “percent”

[3] = target: T2, EDG3 (Homo sapiens, UniProt Q99500); experiment: GPCR reactivity screen, PathHunter β-Arrestin, antagonist assay EDG3; conditions: for antagonist activity against EDG3 (in words): GPCR reactivity screen; for EDG3 (Antagonist) percent inhibition: antagonist mode, agonist challenge at EC80
T2 sequence (Q99500 whole entry): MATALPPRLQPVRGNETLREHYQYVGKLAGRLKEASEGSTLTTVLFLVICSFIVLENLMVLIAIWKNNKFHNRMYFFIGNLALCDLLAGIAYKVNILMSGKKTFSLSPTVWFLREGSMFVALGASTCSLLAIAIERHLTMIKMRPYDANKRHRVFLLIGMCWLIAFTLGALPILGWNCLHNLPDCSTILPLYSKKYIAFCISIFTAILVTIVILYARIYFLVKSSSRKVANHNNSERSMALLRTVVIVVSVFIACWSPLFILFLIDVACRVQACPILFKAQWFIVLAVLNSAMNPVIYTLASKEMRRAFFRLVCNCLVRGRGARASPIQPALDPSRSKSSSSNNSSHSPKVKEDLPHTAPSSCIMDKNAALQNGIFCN
Method: as §1, §2, §3

[4] = target: T3, CHRM2 (Homo sapiens, UniProt P08172); experiment: GPCR reactivity screen, PathHunter β-Arrestin, antagonist assay CHRM2; conditions: for antagonist activity against CHRM2 (in words): GPCR reactivity screen; for CHRM2 (Antagonist) percent inhibition: antagonist mode, agonist challenge at EC80
T3 sequence (P08172 1-466): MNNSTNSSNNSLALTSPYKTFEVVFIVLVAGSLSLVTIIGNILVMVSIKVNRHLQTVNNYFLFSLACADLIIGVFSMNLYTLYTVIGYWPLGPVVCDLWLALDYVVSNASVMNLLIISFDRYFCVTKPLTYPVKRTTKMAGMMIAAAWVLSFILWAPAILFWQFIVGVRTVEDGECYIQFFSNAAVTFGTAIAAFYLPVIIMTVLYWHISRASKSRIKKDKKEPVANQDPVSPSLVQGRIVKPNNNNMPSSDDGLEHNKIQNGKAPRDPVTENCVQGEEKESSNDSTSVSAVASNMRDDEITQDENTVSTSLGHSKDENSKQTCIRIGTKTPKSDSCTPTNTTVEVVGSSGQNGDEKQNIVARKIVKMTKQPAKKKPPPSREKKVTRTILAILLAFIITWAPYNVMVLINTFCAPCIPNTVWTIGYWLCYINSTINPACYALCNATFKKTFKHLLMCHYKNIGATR
Method: as §1, §2, §3

[5] = target: T2, EDG3; experiment: GPCR reactivity screen, PathHunter β-Arrestin, agonist assay EDG3; set-up: concentration or dose not given beside the values; conditions: agonist mode; control sphingosine-1-phosphate
Method: as §1
(§4) A total of six assays were run. Specifically, agonist and antagonist assays were run for each of CHRM2, EDG3, and MRGPRX2. In each of the three agonist assays, PathHunter® cell lines were removed from a freezer stock and seeded at a volume of 20 μL into white walled, 384-well microplates and incubated at 37° C. Each cell was incubated with a sample to induce a response and then diluted to generate a 5× sample in assay buffer. 5 μL of the 5× sample was then added to cells and incubated at 37° C. for 90 or 180 minutes. The final assay concentration was 1%. The assay signal was generated through addition of 12.5 μL or 15 μL (50% V/V) of a detection reagent cocktail followed by a one hour incubation time at room temperature. Microplates were read following signal generation with a PerkinElmer Envision™ (PerkinElmer Inc., Waltham, Mass.) for chemiluminescent signal detection. Reactivity was analyzed using the CBIS data analysis suite (ChemInnovation, CA) where RLU refers to the raw measured values. The percent activity was then calculated using the formula: % Activity=100%*(mean RLU of test sample−mean RLU of control)/(mean max control ligand−mean RLU of vehicle control).
as §3

[6] = target: T1, MRGPRX2; experiment: GPCR reactivity screen, PathHunter β-Arrestin, agonist assay MRGPRX2; conditions: agonist mode; control cortistatin 14
Method: as §1, §4, §3

[7] = target: T3, CHRM2; experiment: IC50 antagonist activity screen, PathHunter β-Arrestin, CHRM2; conditions: maximum of IC50 curve
Method: as §2
as §3, with “IC50 curves were measured using the same GPCR assay, PathHunter® β-Arrestin from Eurofins DiscoverX Products (Fremont, Calif.), as the GPCR reactivity screen. As” for “As”, “maximum” for “percent”

[8] = target: T3, CHRM2; experiment: GPCR reactivity screen, PathHunter β-Arrestin, agonist assay CHRM2; set-up: concentration or dose not given beside the values; conditions: agonist mode; control acetylcholine
Method: as §1, §4, §3

[9] = target: T2, EDG3; experiment: IC50 antagonist activity screen, PathHunter β-Arrestin, EDG3; conditions: maximum of IC50 curve
Method: as §2
as §3, with “IC50 curves were measured using the same GPCR assay, PathHunter® β-Arrestin from Eurofins DiscoverX Products (Fremont, Calif.), as the GPCR reactivity screen. As” for “As”, “maximum” for “percent”

Row | Compound | antagonist activity against MRGPRX2 (in words) [1] | MRGPRX2 (Antagonist) percent inhibition [1] [%] | maximum inhibition (antagonism) MRGPRX2 [2] [%] | antagonist activity against EDG3 (in words) [3] | EDG3 (Antagonist) percent inhibition [3] [%] | antagonist activity against CHRM2 (in words) [4] | CHRM2 (Antagonist) percent inhibition [4] [%] | EDG3 (Agonist) percent activity [5] [%] | MRGPRX2 (Agonist) percent activity [6] [%] | maximum inhibition (antagonism) CHRM2 [7] [%] | CHRM2 (Agonist) percent activity [8] [%] | maximum inhibition (antagonism) EDG3 [9] [%]
1 | CCCCCc1cc(O)c2c(c1)OC(C)(CCC=C(C)C)C=C2 (stereo not drawn) [CBC, cannabichromene] | strong to moderate antagonist activity | 89 | 91 | strong to moderate antagonist activity | 48 | strong to moderate antagonist activity | 89 | −1 | 9 | 85 | 12 | 43
2 | C=C(C)[C@@H]1CCC(C)=C[C@H]1c1c(O)cc(CCCCC)cc1O [CBD, cannabidol] | antagonist activity | 85 | 96 | – | 35 | antagonist activity | 81 | 2 | 11 | 75 | 12 | 30
3 | CCCCCc1cc(O)c(C/C=C(\C)CCC=C(C)C)c(O)c1 [CBG, cannabigerol] | antagonist activity | 96 | 92 | – | 42 | – | 20 | 8 | 2 | 13 | 0 | 36
4 | (+)-cannabidiol [(+)-CBD] | strong to moderate antagonist activity | 92 | 94 | strong to moderate antagonist activity | 55 | strong to moderate antagonist activity | 67 | 21 | 9 | 62 | 7 | 24
